# System: NK92-mi NK cells
# Experiment: NK cell surface modification efficiency (fluorescence intensity, cell coating efficacy)
# Type: cell-based
# Settings: polymer 1.0 mg/mL, 30 minutes at room temperature
# Procedure: A polymer compound (HA-PEG-DSPE) was dissolved in MEM alpha at a concentration of 1.0 mg/mL, and 5×10^5 NK92-mi NK cells were evenly mixed with 100 μL of solution. The surface of NK cell was modified (HA-PEG-DSPE bound to NK cell) at room temperature for 30 minutes and then washed twice with MEM alpha. Cells were then lysed with 250 μL of RIPA buffer and stored at 4° C. for 30 minutes. Finally, 250 μL of distilled water was added, diluted, and transferred to 96-well to measure fluorescence intensity at 480/535 nm.
Substance,fluorescence intensity on NK cell,cell coating efficacy of NK cell
PEG600,fluorescence intensity is not substantially measured,–
PEG2000,strong fluorescence intensity is measured on the surface of NK cell,"higher coating efficacy (cell coating efficacy, ng/10^5 cells) of NK cell compared to the polymer compound using PEG600 and PEG5000"

# From patent US20260041770A1, “CELL MEMBRANE-ATTACHED HYALURONIC ACID-CD44 SPECIFIC BINDING REACTION POLYMER COMPOUND TO ENHANCE THE IMMUNE-ANTICANCER FUNCTION OF NATURAL KILLER CELLS” (DONGGUK UNIVERSITY INDUSTRY-ACADEMIC COOPERATION FOUNDATION, priority 2023, published 2026)
